# Measured values: patent US10745398B2, “2-(het)aryl-substituted fused heterocycle derivatives as pesticides” (Bayer CropScience Aktiengesellschaft, priority 2015, dated 2020)
# Tests used:
# [1] = log P (neutral) by HPLC on reversed-phase column (C 18), EEC Directive 79/831 Annex V.A8; assay type: physicochemical; conditions: HPLC reversed-phase C 18, 55° C., neutral range pH 7.8, ammonium hydrogencarbonate/acetonitrile; for chromatographic logP: reversed-phase HPLC column (C 18)
# [2] = system: L1 larvae of the Australian sheep blowfly (Lucilia cuprina); assay: Lucilia cuprina test; assay type: in vivo; conditions: application rate 100 ppm, after 2 days
# Experimental: (§1) Solvent: dimethyl sulphoxide
# (§2) To produce a suitable active compound preparation, 10 mg of active compound are mixed with 0.5 ml of dimethyl sulphoxide, and the concentrate is diluted with water to the desired concentration.
# About 20 L1 larvae of the Australian sheep blowfly (Lucilia cuprina) are transferred into a test vessel containing minced horsemeat and the active compound preparation of the desired concentration.
# After 2 days, the kill in % is determined. 100% means that all the larvae have been killed; 0% means that no larvae have been killed.
# [3] = system: adult houseflies (Musca domestica); assay: Musca domestica test; assay type: in vivo; conditions: application rate 100 ppm, after 2 days
# Experimental: as §1, §2
# Vessels containing a sponge treated with sugar solution and the active compound preparation of the desired concentration are populated with 10 adult houseflies (Musca domestica).
# After 2 days, the kill in % is determined. 100% means that all of the flies have been killed; 0% means that none of the flies have been killed.
# [4] = system: larvae of the mustard beetle (Phaedon cochleariae); assay: Phaedon cochleariae - spray test; assay type: in vivo; conditions: application rate 500 g/ha, Chinese cabbage leaf discs, after 7 days
# Experimental: (§3) Solvent: 78.0 parts by weight of acetone • • 1.5 parts by weight of dimethylformamide
# (§4) Emulsifier: alkylaryl polyglycol ether
# (§5) To produce a suitable active compound preparation, 1 part by weight of active compound is dissolved with the stated parts by weight of solvent and made up with water containing an emulsifier concentration of 1000 ppm until the desired concentration is attained. To produce further test concentrations, the preparation is diluted with emulsifier-containing water.
# After 7 days, the efficacy in % is determined. 100% means that all the beetle larvae have been killed; 0% means that no beetle larvae have been killed.
# [5] = system: caterpillars of the armyworm (Spodoptera frugiperda); assay: Spodoptera frugiperda - spray test; assay type: in vivo; conditions: application rate 500 g/ha, maize leaf discs, after 7 days
# Experimental: as §3, §4, §5
# Leaf discs of maize (Zea mays) are sprayed with an active compound preparation of the desired concentration and, after drying, populated with caterpillars of the armyworm (Spodoptera frugiperda).
# After 7 days, the efficacy in % is determined. 100% means that all the caterpillars have been killed; 0% means that no caterpillar has been killed.
# [6] = system: unfed adult cat fleas (Ctenocephalides felis); assay: Ctenocephalides felis - oral test; assay type: in vivo; conditions: application rate 100 ppm in citrated cattle blood, after 2 days
# Experimental: as §1
# To produce a suitable active compound preparation, 10 mg of active compound are mixed with 0.5 ml of dimethyl sulphoxide. Dilution with citrated cattle blood gives the desired concentration.
# About 20 unfed adult cat fleas (Ctenocephalides felis) are placed into a chamber which is closed at the top and bottom with gauze. A metal cylinder whose bottom end is closed with parafilm is placed onto the chamber. The cylinder contains the blood/active compound preparation, which can be imbibed by the fleas through the parafilm membrane.
# After 2 days, the kill in % is determined. 100% means that all of the fleas have been killed; 0% means that none of the fleas have been killed.
# [7] = system: engorged adult female cattle ticks (Boophilus microplus); assay: Boophilus microplus - injection test; assay type: in vivo; conditions: application rate 20 μg/animal, assessed after 7 days
# Experimental: as §1
# To produce a suitable active compound preparation, 10 mg of active compound are mixed with 0.5 ml of solvent and the concentrate is diluted with solvent to the desired concentration.
# 1 μl of the active compound solution is injected into the abdomen of 5 engorged adult female cattle ticks (Boophilus microplus). The animals are transferred into dishes and kept in a climate-controlled room.
# Efficacy is assessed after 7 days by laying of fertile eggs. Eggs which are not visibly fertile are stored in a climate-controlled cabinet until the larvae hatch after about 42 days. An efficacy of 100% means that none of the ticks has laid any fertile eggs; 0% means that all the eggs are fertile.
# [8] = system: green peach aphid (Myzus persicae); assay: Myzus persicae - spray test; assay type: in vivo; conditions: application rate 500 g/ha, Chinese cabbage leaf discs, after 5-6 days
# Experimental: Solvent: 78 parts by weight of acetone • • 1.5 parts by weight of dimethylformamide
# as §4, §5
# Discs of Chinese cabbage leaves (Brassica pekinensis) infested by all stages of the green peach aphid (Myzus persicae) are sprayed with an active compound preparation of the desired concentration.
# After 5-6 days, the efficacy in % is determined. 100% means that all the aphids have been killed; 0% means that no aphids have been killed.
Structure (SMILES),chromatographic logP [1],efficacy (kill in %) [2] [%],efficacy (kill in %) [3] [%],efficacy (beetle larvae killed) [4] [%],efficacy (caterpillars killed) [5] [%],log P (neutral) [1],efficacy (kill in %) [6] [%],efficacy (no laying of fertile eggs) [7] [%],efficacy (aphids killed) [8] [%]
"CCS(=O)(=O)c1ccc(-n2cnn(-c3ccc(Cl)cc3Cl)c2=O)nc1-c1nc2cc(C(F)(F)F)ncc2n1C [Example I-2, 2-(2,4-Dichlorophenyl)-4-[5-ethylsulfonyl-6-[3-methyl-6-(trifluoromethyl)imidazo[4,5-c]pyridin-2-yl]-2-pyridyl]-1,2,4-triazol-3-one]",3.71,100,90,100,100,–,–,–,–
CCS(=O)(=O)c1ccc(-n2nnn(-c3ccccc3Cl)c2=O)nc1-c1nc2cc(C(F)(F)F)ncc2n1C [Example I-4],–,–,–,–,100,–,–,–,–
CCS(=O)(=O)c1ccc(N2CCN(c3ccc(Cl)cc3)C2=O)nc1-c1nc2cc(C(F)(F)F)ncc2n1C [Example I-5],–,–,–,100,100,"Example I-5: logP (neutral): 3.86 ^1H-NMR(400.0 MHz, d6-DMSO): δ =",–,–,–
CCS(=O)(=O)c1ccc(-n2ccc(-c3ccc(Cl)cc3)n2)nc1-c1nc2cc(C(F)(F)F)ncc2n1C [Example I-6],–,100,–,100,83,"Example I-6: logP (neutral): 4.62 ^1H-NMR(400.0 MHz, d6-DMSO): δ =",90,–,–
CCS(=O)(=O)c1ccc(-n2cc(-c3ncccc3Cl)cn2)nc1-c1nc2cc(C(F)(F)F)ncc2n1C [Example I-7],–,100,–,100,100,"Example I-7: logP (neutral): 3.66 ^1H-NMR(400.0 MHz, d6-DMSO): δ =",100,–,–
CCS(=O)(=O)c1ccc(-n2cc(-c3ccccc3)cn2)nc1-c1nc2cc(C(F)(F)F)ncc2n1C [Example I-9],–,–,–,100,100,"Example I-9: logP (neutral): 3.92 ^1H-NMR(400.0 MHz, d6-DMSO): δ =",–,–,–
CCS(=O)(=O)c1ccc(-n2cc(-c3ccc(Cl)cc3)cn2)nc1-c1nc2cc(C(F)(F)F)ncc2n1C [Example I-10],–,–,–,100,–,"Example I-10: logP (neutral): 4.33 ^1H-NMR(400.0 MHz, d6-DMSO): δ =",–,–,–
CCS(=O)(=O)c1ccc(-n2cc(-c3ccc(F)cc3)cn2)nc1-c1nc2cc(C(F)(F)F)ncc2n1C [Example I-11],–,–,–,100,–,"Example I-11: logP (neutral): 4.17 ^1H-NMR(400.0 MHz, d6-DMSO): δ =",–,–,–
CCS(=O)(=O)c1ccc(-n2cc(-c3cccc(Br)c3)cn2)nc1-c1nc2cc(C(F)(F)F)ncc2n1C [Example I-12],–,100,–,100,100,"Example I-12: logP (neutral): 4.48 ^1H-NMR(400.0 MHz, d6-DMSO): δ =",100,90,–
CCS(=O)(=O)c1ccc(-n2ccc(-c3ccccc3Cl)n2)nc1-c1nc2cc(C(F)(F)F)ncc2n1C [Example I-13],–,–,–,100,–,"Example I-13: logP (neutral): 4.58 ^1H-NMR(400.0 MHz, d6-DMSO): δ =",–,–,–
CCS(=O)(=O)c1ccc(-n2ccc(-c3ccco3)n2)nc1-c1nc2cc(C(F)(F)F)ncc2n1C [Example I-14],–,–,–,–,–,"Example I-14: logP (neutral): 3.47 1H-NMR(601.6 MHz, d6-DMSO): □ =",–,–,–
CCS(=O)(=O)c1ccc(-n2ncn(-c3ccc(Br)cc3)c2=O)nc1-c1nc2cc(C(F)(F)F)ncc2n1C [Example I-16],–,100,80,100,100,–,100,–,–
CCS(=O)(=O)c1ccc(-n2ncn(-c3ccc(Cl)cc3)c2=O)nc1-c1nc2cc(C(F)(F)F)ncc2n1C [Example I-19],–,100,80,100,100,"Example I-19: logP (neutral): 2.82 1H-NMR(400.0 MHz, d6-DMSO): □ =",100,80,–
CCS(=O)(=O)c1ccc(-n2cnn(-c3c(F)cccc3F)c2=O)nc1-c1nc2cc(C(F)(F)F)ncc2n1C [Example I-20],–,–,–,–,–,"Example I-20: logP (neutral): 3.13 1H-NMR(400.0 MHz, d6-DMSO): □ =",–,–,–
CCS(=O)(=O)c1ccc(-n2nnn(-c3ccc(Cl)cc3)c2=O)nc1-c1nc2cc(C(F)(F)F)ncc2n1C [Example I-21],–,100,–,100,100,"Example I-21: logP (neutral): 3.71: 1H-NMR(400.0 MHz, d6-DMSO): □ =",80,–,–
CCS(=O)(=O)c1ccc(-n2nc(C(F)(F)F)n(-c3ccccc3)c2=O)nc1-c1nc2cc(C(F)(F)F)ncc2n1C [Example I-22],–,–,–,100,100,–,–,–,–
CCS(=O)(=O)c1ccc(-n2ccc(-c3cccc(Cl)c3)n2)nc1-c1nc2cc(C(F)(F)F)ncc2n1C [Example I-23],–,100,–,100,100,"Example I-23: logP (neutral): 4.64 1H-NMR(400.0 MHz, d6-DMSO): □ =",100,–,–
CCS(=O)(=O)c1ccc(-n2cc(Cl)c(-c3ccc(F)c(Cl)c3)n2)nc1-c1nc2cc(C(F)(F)F)ncc2n1C [Example I-25],–,–,–,100,–,"Example I-25: logP (neutral): 5.23 1H-NMR(400.0 MHz, d6-DMSO): □ =",–,–,–
CCS(=O)(=O)c1ccc(-n2cnc(-c3ccccn3)n2)nc1-c1nc2cc(C(F)(F)F)ncc2n1C [Example I-26],–,–,–,100,100,"Example I-26: logP (neutral): 2.43 1H-NMR(400.0 MHz, d6-DMSO): □ =",–,–,90
CCS(=O)(=O)c1ccc(-n2cnc(-c3cccnc3)n2)nc1-c1nc2cc(C(F)(F)F)ncc2n1C [Example I-27],–,–,–,100,100,"Example I-27: logP (neutral): 2.54 1H-NMR(400.0 MHz, d6-DMSO): □ =",–,–,–
CCS(=O)(=O)c1ccc(-c2cnn(-c3ccccc3F)c2)nc1-c1nc2cc(C(F)(F)F)ncc2n1C [Example I-28],–,100,–,100,100,"Example I-28: logP (neutral): 3.38 1H-NMR(400.0 MHz, d6-DMSO): □ =",100,–,–
CCS(=O)(=O)c1ccc(-c2cc(-c3ccccc3)no2)nc1-c1nc2cc(C(F)(F)F)ncc2n1C [Example I-31],–,–,–,–,100,"Example I-31: logP (neutral): 3.81 1H-NMR(400.0 MHz, d6-DMSO): □ =",–,–,–
CCS(=O)(=O)c1ccc(-n2cnn(-c3ccccc3F)c2=O)nc1-c1nc2cc(C(F)(F)F)ccc2n1C [Example I-34],–,–,–,100,100,–,–,–,–
"CCS(=O)(=O)c1ccc(-n2cnn(-c3ccccc3F)c2=O)nc1-c1cn2cnc(C(F)(F)F)cc2n1 [Example I-35, 4-{5-(Ethylsulfonyl)-6-[7-(trifluoromethyl)imidazo[1,2-c]pyrimidine-2-yl]pyridin-2-yl}-2-(2-fluorophenyl)-2,4-dihydro-3H-1,2,4-triazol-3-one]",3.16,–,–,100,100,–,–,–,–
